According to PMC5917077, “CD22-Binding Synthetic Sialosides Regulate B Lymphocyte Proliferation Through CD22 Ligand-Dependent and Independent Pathways, and Enhance Antibody Production in Mice” (Frontiers in Immunology, 2018):

Legend:
[1] = biological target: T1, CD22 (Siglec-2) (Mus musculus, UniProt P35329); assay: competition ELISA, mouse CD22-Fc binding to immobilized biotinylated synthetic CD22 ligand
T1 construct: amino-terminal domains (domains 1–3) fused to Fc region of human IgG1 (CD22-Fc)
T1 sequence (P35329 22-347 limits assumed): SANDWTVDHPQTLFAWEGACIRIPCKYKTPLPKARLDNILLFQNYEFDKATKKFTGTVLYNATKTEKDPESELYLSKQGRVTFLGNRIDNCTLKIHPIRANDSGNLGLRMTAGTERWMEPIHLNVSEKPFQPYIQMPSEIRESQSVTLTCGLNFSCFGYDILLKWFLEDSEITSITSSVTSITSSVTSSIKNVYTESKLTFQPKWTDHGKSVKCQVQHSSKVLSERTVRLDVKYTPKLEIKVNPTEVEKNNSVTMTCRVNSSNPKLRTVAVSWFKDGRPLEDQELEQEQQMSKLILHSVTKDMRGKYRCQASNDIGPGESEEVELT

[2] = biological target: T2, CD22 (Siglec-2) (Homo sapiens, UniProt P20273); assay: competition ELISA, human CD22-Fc binding to immobilized α1-acid glycoprotein
T2 construct: amino-terminal domains (domains 1–3) fused to Fc region of human IgG1 (CD22-Fc)
T2 sequence (P20273 20-326 limits assumed): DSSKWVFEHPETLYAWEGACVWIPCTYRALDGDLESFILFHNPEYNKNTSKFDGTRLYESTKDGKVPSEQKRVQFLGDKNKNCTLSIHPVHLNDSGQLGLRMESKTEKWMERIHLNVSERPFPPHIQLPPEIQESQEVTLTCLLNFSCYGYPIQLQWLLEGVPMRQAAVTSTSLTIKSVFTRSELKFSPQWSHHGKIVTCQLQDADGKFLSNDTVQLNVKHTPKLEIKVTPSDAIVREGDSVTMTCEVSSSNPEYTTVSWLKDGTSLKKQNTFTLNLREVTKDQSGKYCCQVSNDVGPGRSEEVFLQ

IC50 [1]	IC50 [2]	Structure (SMILES)
~100 nM	~100 nM	O=C(Cc1ccc(-c2ccc(O)cc2)cc1)NC[C@@H](O)[C@@H](O)[C@@H]1O[C@@](OCc2ccccc2)(C(=O)O)C[C@H](O)[C@H]1NC(=O)CO [GSC718]
~100 nM	~100 nM	O=C(Cc1ccc(-c2ccc(O)cc2)cc1)NC[C@@H](O)[C@@H](O)[C@@H]1OC(OCc2ccc(F)cc2)(C(=O)O)C[C@H](O)[C@H]1NC(=O)CO (stereo partly shown) [GSC839]
